Series [1] has as its system CpG-ODN effect on thymidine uptake by WEHI 231 B-cells. The series is described as follows: Inhibition of CpG-ODN effect on thymidine uptake by WEHI 231 B-cells treated with anti-surface IgM. In kind it is cell-based, murine. As to conditions: Mus musculus, WEHI231; concentration required for 50% blockage of the ability of CpG-ODN to rescue WEHI 231 cells from anti-surface IgM-induced cell death; read-out: 50% Efficacy. An excerpt:
The ability of analogs to inhibit an immunostimulatory effect of CpG-ODN was examined. This assay measures the reversal of the protection by CpG-ODN against surface IgM induced killing of WEHI 231 cells.

The next series has as its system WEHI 231 cells. The following applies: mouse. Here is the method: Cellular uptake of analogs was estimated by fluorescence. […] The cells were pelleted by centrifugation, and the fluorescence of the supernatant was measured after dilution with the appropriate buffer. The cell pellet was extracted with 1 ml Catrimox-14 (Iowa Biotechnology Corp., Coralville, La.), and the insoluble nucleic acids were removed by centrifugation (16,000×g, 10 min). The resulting extract was diluted with the appropriate buffer, and its fluorescence was measured. […] The fluorescence intensity and spectra were determined with a Farrand Manual Spectrofluorometer at three pH's (3.4, 7.4, 10.0). Subsequent measurements of fluorescence were performed at pH giving the highest yield (Table I).
Standard curves of the fluorescence intensity of each analog in cell culture medium and in the cell extract buffer were prepared, measurements being taken at the pH listed in the table. To examine the uptake of the analogs by cells, WEHI 231 cells were incubated with a range of concentrations of the analogs, and measured the concentration of the analog remaining in the supernatant and the amount of analog in the extract of a cell pellet using the standard curves.
The sources were a=Sigma Chemical Co., b=National Cancer Institute, c=Synthesized by LS, d=Synthesized by FMI. […] ND, not determined.

In another series the test system is CpG ODN 1760. Put plainly: DNA thermal melting at 260 nm. The class given is binding. The following applies: 0.3 moles of compound per base, MES with 150 mM KCl, pH 4.4. The procedure: Thermal melting studies were conducted at 260 nm with a Cary spectrophotometer interfaced to a microcomputer. A thermistor fixed into a reference cuvette was used to monitor the temperature. The DNA oligomer was added to 1 mL of buffer (MES with 150 mM KCl, pH 4.4) in 1 cm path length reduced-volume quartz cells. Studies were generally conducted a at concentration of 5×10-^5M bases. […].
Structural nucleic acids with duplex or single-stranded folded conformations generally give sigmoid thermal melting curves characteristic of thermal unfolding of the structures. This unfolding results in a change in the UV spectrum. […]

For `CCN(CC)CCCC(C)Nc1c2ccc(Cl)cc2nc2ccc(OC)cc12` (stereo not drawn) [Quinacrine], the EC50 in series [1] amounted to 10.2 nM. Besides, in the series on WEHI 231 cells, the Cellular uptake ratio is on record as 601. In addition, the “Change in the thermal melting curve of the free CpG-ODN” value in the series on CpG ODN 1760 was “did not cause any significant change”.

The values are drawn from patent publication US6479504B1, “Antagonism of immunostimulatory CpG-oligonucleotides by 4-aminoquinolines and other weak bases” (The University of Iowa Research Foundation, priority 1999, dated 2002).
